Like-named read-outs stand apart in the source and are kept apart here.
System: human FXN
Assay: EC50 assay: FXN mRNA expression by qRT-PCR in GM15850 cells after 48 hrs compound treatment
Format: cell-based
Settings: 48 hrs incubation, hFXN expression normalized to hGAPDH (qRT-PCR), read-out: EC50 WT (nM, 48 hr)
In short: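 FXN transcript, normalized to GAPDH by TaqMan qRT-PCR, read out after 48 hrs of compound on GM15850 cells plated at 150,000 per well. Dosing used five 3-fold steps from 150 nM final, vehicle 0.01% DMSO.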

Row | SMILES | EC50 (Homo sapiens) | EC50
1 | Cc1cc(F)cc(C)c1Oc1ccc(C(C)(C)O)cc1-c1cn(C)c(=O)c2[nH]c(C(=O)N3CCC(CN4CCN(CCOCCOCCOCCOCCOCCOCCNC(=O)CCNC(=O)c5nc(NC(=O)CCNC(=O)c6cc(NC(=O)c7nc(NC(=O)CCNC(=O)c8cc(NC(=O)c9nccn9C)cn8C)cn7C)cn6C)cn5C)CC4)CC3)cc12 [Compound 168] | 100 to 500 nM | 
2 | Cc1cc(F)cc(C)c1Oc1ccc(C(C)(C)O)cc1-c1cn(C)c(=O)c2[nH]c(C(=O)N3CCN(C4CCN(CCOCCOCCOCCOCCC(=O)NCCCN(CCCNC(=O)CCNC(=O)c5nc(NC(=O)CCNC(=O)c6cc(NC(=O)c7nc(NC(=O)CCNC(=O)c8cc(NC(=O)c9nccn9C)cn8C)cn7C)cn6C)cn5C)CC(F)(F)F)CC4)CC3)cc12 [Compound 169] | 100 to 500 nM | 
3 | Cc1cc(F)cc(C)c1Oc1ccc(C(C)(C)O)cc1-c1cn(C)c(=O)c2[nH]c(C(=O)N3CCC(N4CCN(CCOCCOCCOCCOCCC(=O)NCCCN(CCCNC(=O)CCNC(=O)c5nc(NC(=O)CCNC(=O)c6cc(NC(=O)c7nc(NC(=O)CCNC(=O)c8cc(NC(=O)c9nccn9C)cn8C)cn7C)cn6C)cn5C)CC(F)(F)F)CC4)CC3)cc12 [Compound 170] | > 500 nM | 
4 | Cc1cc(F)cc(C)c1Oc1ccc(C(C)(C)O)cc1-c1cn(C)c(=O)c2[nH]c(C(=O)NC3CCN(CC#CC#CC4CCN(CCOCCOCCOCCOCCOCCOCCOCCNC(=O)CCNC(=O)c5nc(NC(=O)CCNC(=O)c6cc(NC(=O)c7nc(NC(=O)CCNC(=O)c8cc(NC(=O)c9nccn9C)cn8C)cn7C)cn6C)cn5C)CC4)CC3)cc12 [Compound 175] | < 100 nM | 
5 | Cc1cc(F)cc(C)c1Oc1ccc(C(C)(C)O)cc1-c1cn(C)c(=O)c2[nH]c(C(=O)NC3CCN(CC#CC#CC4CCN(CCOCCOCCNC(=O)CCNC(=O)c5nc(NC(=O)CCNC(=O)c6cc(NC(=O)c7nc(NC(=O)CCNC(=O)c8cc(NC(=O)c9nccn9C)cn8C)cn7C)cn6C)cn5C)CC4)CC3)cc12 [Compound 176] | < 100 nM | 
6 | Cc1cc(F)cc(C)c1Oc1ccc(C(C)(C)O)cc1-c1cn(C)c(=O)c2[nH]c(C(=O)Nc3ccc(OCCOCCOCCOCCOCCOCCOCCOCCOCCOCCNC(=O)CCNC(=O)c4nc(NC(=O)CCNC(=O)c5cc(NC(=O)c6nc(NC(=O)CCNC(=O)c7cc(NC(=O)c8nccn8C)cn7C)cn6C)cn5C)cn4C)cc3)cc12 [Compound 195] | < 100 nM | 
7 | C=C(C)c1ccc(Oc2c(C)cc(F)cc2C)c(-c2cn(C)c(=O)c3[nH]c(C(=O)Nc4ccc(OCCOCCOCCOCCOCCOCCOCCOCCOCCNC(=O)CCNC(=O)c5nc(NC(=O)CCNC(=O)c6cc(NC(=O)c7nc(NC(=O)CCNC(=O)c8cc(NC(=O)c9nccn9C)cn8C)cn7C)cn6C)cn5C)cc4)cc23)c1 [Compound 197, N-(5-{[2-({2-[(2-{[26-(4-{14-[2-(4-fluoro-2,6-dimethylphenoxy)-5-(prop-1-en-2-yl)phenyl]-6-methyl-7-oxo-1H-pyrrolo[2,3-c]pyridine-2-amido}phenoxy)-3,6,9,12,15,18,21,24-octaoxahexacosan-1-yl]carbamoyl]ethyl)carbamoyl]-1-methylimidazol-4-yl]carbamoyl)ethyl]carbamoyl]-1-methylpyrrol-3-yl)-1-methyl-4-(3-{[1-methyl-4-(1-methylimidazole-2-amido)pyrrol-2-yl]formamido]propanamido)imidazole-2-carboxamide] |  | 100 to 500 nM
8 | Cc1cc(F)cc(C)c1Oc1ccc(C(C)(C)O)cc1-c1cn(C)c(=O)c2[nH]c(C(=O)Nc3ccc(OCCOCCOCCOCCOCCOCCOCCOCCOCCNC(=O)CCNC(=O)c4nc(NC(=O)CCNC(=O)c5cc(NC(=O)c6nc(NC(=O)CCN)cn6C)cn5C)cn4C)cc3)cc12 [Compound 199, 4-(3-aminopropanamido)-N-(5-{[2-({2-[(2-{[26-(4-{4-[2-(4-fluoro-2,6-dimethylphenoxy)-5-(2-hydroxypropan-2-yl)phenyl]-6-methyl-7-oxo-1H-pyrrolo[2,3-c]pyridine-2-amido}phenoxy)-3,6,9,12,15,18,21,24-octaoxahexacosan-1-yl]carbamoyl}ethyl)carbamoyl]-1-methylimidazol-4-yl}carbamoyl)ethyl]carbamoyl}-1-methylpyrrol-3-yl)-1-methylimidazole-2-carboxamide] | > 500 nM | 
9 | Cc1sc2c(c1C)C(c1ccc(NC(=O)CCCCCCCCCCCCCCCNCCc3c[nH]c4ccccc34)cc1)=N[C@@H](CC(=O)Nc1ccc(OCCOCCOCCOCCOCCOCCOCCOCCOCCNC(=O)CCNC(=O)c3nc(NC(=O)CCNC(=O)c4cc(NC(=O)c5nc(NC(=O)CCNC(=O)c6cc(NC(=O)c7nccn7C)cn6C)cn5C)cn4C)cn3C)cc1)c1nnc(C)n1-2 [Compound 200] | > 500 nM | 
10 | CCCCCCCC(=O)N(CC#CC#Cc1ccc(NC(=O)C[C@@H]2N=C(c3ccc(Cl)cc3)c3c(sc(C)c3C)-n3c(C)nnc32)cc1)CCOCCOCCOCCOCCOCCNC(=O)CCNC(=O)c1nc(NC(=O)CCNC(=O)c2cc(NC(=O)c3nc(NC(=O)CCNC(=O)c4cc(NC(=O)c5nccn5C)cn4C)cn3C)cn2C)cn1C [Compound 201] | > 500 nM | 
11 | CCCCCCCC(=O)Nc1ccc(C2=N[C@@H](CC(=O)Nc3ccc(OCCOCCOCCOCCOCCOCCOCCOCCOCCNC(=O)CCNC(=O)c4nc(NC(=O)CCNC(=O)c5cc(NC(=O)c6nc(NC(=O)CCNC(=O)c7cc(NC(=O)c8nccn8C)cn7C)cn6C)cn5C)cn4C)cc3)c3nnc(C)n3-c3sc(C)c(C)c32)cc1 [Compound 203] | 100 to 500 nM | 
12 | CCCCCCCCCCCCCCCC(=O)Nc1ccc(C2=N[C@@H](CC(=O)Nc3ccc(OCCOCCOCCOCCOCCOCCOCCOCCOCCNC(=O)CCNC(=O)c4nc(NC(=O)CCNC(=O)c5cc(NC(=O)c6nc(NC(=O)CCNC(=O)c7cc(NC(=O)c8nccn8C)cn7C)cn6C)cn5C)cn4C)cc3)c3nnc(C)n3-c3sc(C)c(C)c32)cc1 [Compound 204] | > 500 nM | 
13 | Cc1cc(F)cc(C)c1Oc1ccc(C(C)(C)O)cc1-c1cn(C)c(=O)c2[nH]c(C(=O)Nc3ccc(OCCOCCOCCOCCOCCOCCOCCOCCNC(=O)CCNC(=O)c4nc(NC(=O)CCNC(=O)c5cc(NC(=O)c6nc(NC(=O)CCNC(=O)c7cc(NC(=O)c8nccn8C)cn7C)cn6C)cn5C)cn4C)cc3)cc12 [Compound 205, N-(5-{[2-({2-[(2-{[23-(4-{4-[2-(4-fluoro-2,6-dimethylphenoxy)-5-(2-hydroxypropan-2-yl)phenyl]-6-methyl-7-oxo-1H-pyrrolo[2,3-c]pyridine-2-amido}phenoxy)-3,6,9,12,15,18,21-heptaoxatricosan-1-yl]carbamoyl}ethyl)carbamoyl]-1-methylimidazol-4-yl}carbamoyl)ethyl]carbamoyl}-1-methylpyrrol-3-yl)-1-methyl-4-(3-{[1-methyl-4-(1-methylimidazole-2-amido)pyrrol-2-yl]formamido}propanamido)imidazole-2-carboxamide] | < 100 nM | 
14 | Cn1cc(NC(=O)c2nc(NC(=O)CCNC(=O)c3cc(NC(=O)c4nccn4C)cn3C)cn2C)cc1C(=O)NCCC(=O)Nc1cn(C)c(C(=O)NCCC(=O)NCCOCCOCCOCCOCCOCCOCCOCCOCCOc2ccc(NC(=O)c3cc4c(-c5cc(S(C)(=O)=O)ccc5Oc5ccc(F)cc5F)cn(C)c(=O)c4[nH]3)cc2)n1 [Compound 207, N-(5-{[2-({2-[(2-{[26-(4-{14-[2-(2,4-difluorophenoxy)-5-methanesulfonylphenyl]-6-methyl-7-oxo-1H-pyrrolo[2,3-c]pyridine-2-amido}phenoxy)-3,6,9,12,15,18,21,24-octaoxahexacosan-1-yl]carbamoyl]ethyl)carbamoyl]-1-methylimidazol-4-yl}carbamoyl)ethyl]carbamoyl}-1-methylpyrrol-3-yl)-1-methyl-4-(3-{[1-methyl-4-(1-methylimidazole-2-amido)pyrrol-2-yl]formamido]propanamido)imidazole-2-carboxamide] | < 100 nM | 
15 | COCCOCCOCCOCCOCCOCCOc1cc(NC(=O)C[C@@H]2N=C(c3ccc(Cl)cc3)c3c(sc(C)c3C)-n3c(C)nnc32)ccc1OCCOCCOCCOCCOCCOCCOCCOCCOCCNC(=O)CCNC(=O)c1nc(NC(=O)CCNC(=O)c2cc(NC(=O)c3nc(NC(=O)CCNC(=O)c4cc(NC(=O)c5nccn5C)cn4C)cn3C)cn2C)cn1C [Compound 211] | 100 to 500 nM | 
16 | Cc1cc(F)cc(C)c1Oc1ccc(C(C)(C)O)cc1-c1cn(C)c(=O)c2[nH]c(C(=O)Nc3ccc(OCCOCCOCCOCCOCCOCCOCCOCCOCCNC(=O)c4cc(NC(=O)c5nc(NC(=O)c6cc(NC(=O)c7ccc8nc(-c9nccn9C)[nH]c8c7)cn6C)cn5C)cn4C)cc3)cc12 [Compound 215, N-[5-({2-[(5-{[26-(4-{4-[2-(4-fluoro-2,6-dimethylphenoxy)-5-(2-hydroxypropan-2-yl)phenyl]-6-methyl-7-oxo-1H-pyrrolo[2,3-c]pyridine-2-amido}phenoxy)-3,6,9,12,15,18,21,24-octaoxahexacosan-1-yl]carbamoyl}-1-methylpyrrol-3-yl)carbamoyl]-1-methylimidazol-4-yl]carbamoyl)-1-methylpyrrol-3-yl]-2-(1-methylimidazol-2-yl)-3H-1,3-benzodiazole-5-carboxamide] | > 500 nM | 
17 | Cc1cc(F)cc(C)c1Oc1ccc(C(C)(C)O)cc1-c1cn(C)c(=O)c2[nH]c(C(=O)Nc3ccc(OCCOCCOCCOCCOCCOCCOCCOCCn4cc(CNC(=O)c5nc(NC(=O)CCNC(=O)c6cc(NC(=O)c7nc(NC(=O)CCNC(=O)c8cc(NC(=O)c9nccn9C)cn8C)cn7C)cn6C)cn5C)nn4)cc3)cc12 [Compound 217, N-({1-[23-(4-{4-[2-(4-fluoro-2,6-dimethylphenoxy)-5-(2-hydroxypropan-2-yl)phenyl]-6-methyl-7-oxo-1H-pyrrolo[2,3-c]pyridine-2-amido}phenoxy)-3,6,9,12,15,18,21-heptaoxatricosan-1-yl]-1,2,3-triazol-4-yl}methyl)-1-methyl-4-[3-({1-methyl-4-[1-methyl-4-(3-{[1-methyl-4-(1-methylimidazole-2-amido)pyrrol-2-yl]formamido}propanamido)imidazole-2-amido]pyrrol-2-yl}formamido)propanamido]imidazole-2-carboxamide] | < 100 nM | 

— US20240124491A1, “METHODS AND COMPOUNDS FOR TREATING FRIEDREICH'S ATAXIA” (Design Therapeutics, Inc., priority 2021, published 2024)
